Measurements published in patent publication EP2768830B1, “APOPTOSIS-INDUCING AGENTS FOR THE TREATMENT OF CANCER AND IMMUNE AND AUTOIMMUNE DISEASES” (AbbVie Inc., priority 2011, dated 2013).

Assays:
[1] = test system: mouse FL5.12 cells transfected with Bcl-XL; test: FL5.12 cellular assay (cell viability, CellTiter-Glo); format: cell-based; conditions: Mus musculus; FL5.12 cells transfected with Bcl-XL, IL-3-depleted, 3% FBS assay media, 24 hours, CellTiter-Glo; read-out: FL5.12 Bcl-xL, - IL3, EC 50;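 further: each EC50 determination derived from duplicate measurements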
GST-Bcl-xL = GST-Bcl-xL (Homo sapiens, UniProt Q07817); conditions: read-out: TR-FRET binding Bcl-xL Ki
GST-Bcl-2 = target: T1, GST-Bcl-2 (Homo sapiens, UniProt P10415); conditions: F-Bak probe, read-out: Ki, competition with F-Bak for the Bcl-2 binding site using the TR-FRET binding assay
T1 construct: made in house
T1 sequence (P10415 whole entry): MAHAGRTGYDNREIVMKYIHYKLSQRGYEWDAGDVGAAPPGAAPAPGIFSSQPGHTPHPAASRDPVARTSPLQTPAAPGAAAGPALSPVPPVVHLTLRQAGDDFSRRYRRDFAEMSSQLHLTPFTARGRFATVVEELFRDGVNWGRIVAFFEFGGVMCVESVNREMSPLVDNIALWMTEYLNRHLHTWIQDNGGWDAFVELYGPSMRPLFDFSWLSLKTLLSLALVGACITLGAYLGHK

Chain of GST-Bcl-xL (Q07817 whole entry): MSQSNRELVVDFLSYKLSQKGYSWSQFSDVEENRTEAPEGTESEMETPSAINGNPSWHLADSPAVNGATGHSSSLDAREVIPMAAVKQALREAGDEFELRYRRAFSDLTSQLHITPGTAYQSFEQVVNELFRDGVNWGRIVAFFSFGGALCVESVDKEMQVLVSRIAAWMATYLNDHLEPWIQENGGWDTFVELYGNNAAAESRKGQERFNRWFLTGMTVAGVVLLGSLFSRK

| Compound | EC50 [1] | Ki (GST-Bcl-xL) | Ki (GST-Bcl-2) |
| --- | --- | --- | --- |
| Cc1c(-c2ccc(N3CCc4cccc(C(=O)Nc5nc6ccccc6s5)c4C3)nc2C(=O)O)cnn1Cc1ccccc1 [Example 20, 6-[8-(1,3-benzothiazol-2-ylcarbamoyl)-3,4-dihydroisoquinolin-2(1H)-yl]-3-(1-benzyl-5-methyl-1H-pyrazol-4-yl)pyridine-2-carboxylic acid] | 13 nM | 2 nM | 70 nM |
| N#Cc1c(-c2ccc(N3CCc4cccc(C(=O)Nc5nc6ccccc6s5)c4C3)nc2C(=O)O)cccc1N1CCCC1C12CC3CC(CC(C3)C1)C2 (stereo not shown) [Example 182, 6-[8-(1,3-benzothiazol-2-ylcarbamoyl)-3,4-dihydroisoquinolin-2(1H)-yl]-3-{2-cyano-3-[2-(tricyclo[3.3.1.1^3,7]dec-1-yl)pyrrolidin-1-yl]phenyl}pyridine-2-carboxylic acid] | 6 nM | 0.2 nM |  |
| Cc1c(-c2ccc(N3CCc4cccc(C(=O)Nc5nc6ccccc6s5)c4C3)nc2C(=O)O)ccnc1N1CCCCC1 [Example 183, 6-[8-(1,3-benzothiazol-2-ylcarbamoyl)-3,4-dihydroisoquinolin-2(1H)-yl]-3'-methyl-2'-(piperidin-1-yl)-3,4'-bipyridine-2-carboxylic acid] | 507 nM | 0.7 nM |  |
| COCCC(C1CCCCC1)n1ncc(-c2ccc(N3CCc4cccc(C(=O)Nc5nc6ccccc6s5)c4C3)nc2C(=O)O)c1C (stereo not shown) [Example 184, 6-[8-(1,3-benzothiazol-2-ylcarbamoyl)-3,4-dihydroisoquinolin-2(1H)-yl]-3-[1-(1-cyclohexyl-3-methoxypropyl)-5-methyl-1H-pyrazol-4-yl]pyridine-2-carboxylic acid] | 2 nM | < 0.1 nM |  |
| O=C(Nc1nc2ccccc2s1)c1cccc2c1CN(c1ccc(-c3cccc4c3cnn4Cc3ccccc3)c(C(=O)O)n1)CC2 [Example 187, 6-[8-(1,3-benzothiazol-2-ylcarbamoyl)-3,4-dihydroisoquinolin-2(1H)-yl]-3-(1-benzyl-1H-indazol-4-yl)pyridine-2-carboxylic acid] | 318 nM | 0.4 nM |  |
| O=C(Nc1nc2ccccc2s1)c1cccc2c1CN(c1ccc(-c3cn(Cc4ccccc4)c4cnccc34)c(C(=O)O)n1)CC2 [Example 188, 6-[8-(1,3-benzothiazol-2-ylcarbamoyl)-3,4-dihydroisoquinolin-2(1H)-yl]-3-(1-benzyl-1H-pyrrolo[2,3-c]pyridin-3-yl)pyridine-2-carboxylic acid] | 546 nM | 0.5 nM |  |
